ChEMBL document CHEMBL5244255, “An insight on medicinal attributes of 1,2,4-triazoles” (Eur J Med Chem, 2020)
Values after ≈ are worked out from the molar mass of the structure shown.

Key:
Plasmodium falciparum [1] = assay: Antimalarial activity against Plasmodium falciparum; type: functional, organism-based; conditions: Plasmodium falciparum; read-out: IC50
Plasmodium falciparum [2] = assay: microbe, parasite or virus in culture
[3] = Protection index, ratio of TD50 for neurotoxicity in po dosed mouse to ED50 for anticonvulsant activity in ip dosed mouse; type: toxicity, organism-based; conditions: in vivo, read-out: Ratio TD50/ED50
Mus musculus [4] = assay: Anticonvulsant activity in po dosed mouse assessed as MES-induced seizures; type: functional
[5] = system: Mycobacterium tuberculosis; assay: Antimycobacterial activity against Mycobacterium tuberculosis H37Rv measured after 7 days; type: functional; conditions: 168 h, time 7 day
[6] = system: Xanthomonas oryzae pv. oryzae; assay: Antibacterial activity against Xanthomonas oryzae pv. oryzae assessed as bacterial growth inhibition by turbidimetric method; type: functional, organism-based
[7] = system: Xanthomonas oryzae pv. oryzae; assay: Antibacterial activity against Xanthomonas oryzae pv. oryzae assessed as bacterial growth inhibition; type: functional, organism-based
HCT-116 = assay: Anticancer activity against human HCT-116 cells assessed as cell growth inhibition
Plasmodium falciparum [8] = assay: Antimalarial activity against Chloroquine resistant Plasmodium falciparum W2; type: functional, organism-based
Staphylococcus aureus [9] = assay: Antibacterial activity against Staphylococcus aureus assessed as bacterial growth inhibition incubated for 16 hrs; type: functional
Candida albicans = assay: Antifungal activity against Candida albicans assessed as fungal growth inhibition incubated for 16 hrs; type: functional
Tubulin [10] = assay: Inhibition of tubulin (unknown origin); type: protein-complex assay, Homo sapiens
[11] = target: Epidermal growth factor receptor (Homo sapiens, UniProt P00533); assay: Inhibition of EGFR (unknown origin) […] insect sf9 cells incubated for 1 hrs in presence of ATP
[12] = Inhibition of BRAF V600E mutant (unknown origin) incubated for 25 mins in presence of ATP by ELISA assay; set-up: species or system Homo sapiens
[13] = Inhibition of 5 alpha reductase (unknown origin)
Escherichia coli = assay: Antibacterial activity against Escherichia coli ATCC 25922 assessed as bacterial growth inhibition by double micro dilution method; type: functional
Enterococcus faecalis = assay: Antibacterial activity against Enterococcus faecalis ATCC 29212 assessed as bacterial growth inhibition by double micro dilution method; type: functional
Staphylococcus aureus [14] = assay: Antibacterial activity against Staphylococcus aureus ATCC 25923 assessed as bacterial growth inhibition by double micro dilution method; type: functional
[15] = system: Acinetobacter haemolyticus; assay: Antibacterial activity against Acinetobacter haemolyticus ATCC 19002 assessed as bacterial growth inhibition by double micro dilution method; type: functional
Klebsiella pneumoniae = assay: Antibacterial activity against Klebsiella pneumoniae ATCC 13883 assessed as bacterial growth inhibition by double micro dilution method; type: functional
Pseudomonas aeruginosa = assay: Antibacterial activity against Pseudomonas aeruginosa ATCC 27853 assessed as bacterial growth inhibition by double micro dilution method; type: functional
DNA gyrase = DNA gyrase (Escherichia coli, UniProt P0AES4+P0AES6); assay: Inhibition of Escherichia coli DNA gyrase supercoiling activity by Microplate Assay kit method; type: protein-complex assay
Mus musculus [16] = species: Mus musculus; assay: Anticonvulsant activity in mouse assessed as MES-induced seizures measured after 30 mins; type: functional; conditions: 0.5 h
Mus musculus [17] = species: Mus musculus; assay: Antiseizure activity against ScPTZ-induced seizure in mouse; type: functional; conditions: route sc
DNA topoisomerase II = DNA topoisomerase II (Homo sapiens, UniProt P11388+Q02880); assay: Inhibition of human Topoisomerase 2 incubated for 30 mins by ELISA assay; type: protein assay
Rattus norvegicus [18] = assay: Antiinflammatory activity in rat assessed as reduction in xylene induced edema at 10 mg/kg, po by CPE test relative to control; type: functional; set-up: scale not given: the % may be the effect or the level left
[19] = system: Mycobacterium tuberculosis; assay: Antimycobacterial activity against Mycobacterium tuberculosis H37Rv by test tube dilution technique; type: functional
Rattus norvegicus [20] = species: Rattus norvegicus; assay: Bronchodilator activity in Sprague-Dawley rat; type: functional, organism-based
HeLa = assay: Antiproliferative activity against human HeLa cells assessed as cell growth inhibition incubated for 48 hrs by MTT assay; type: functional, cell-based
Jurkat = assay: Antiproliferative activity against human jurkat cells assessed as cell growth inhibition incubated for 48 hrs by MTT assay; type: functional, cell-based
HT-29 = assay: Antiproliferative activity against human HT-29 cells assessed as cell growth inhibition incubated for 48 hrs by MTT assay; type: functional, cell-based; conditions: HT-29, 48 h
Tubulin [21] = target: Tubulin (Bos taurus, UniProt Q6B856+Q862L2+Q862F3); assay: Inhibition of bovine brain tubulin polymerization incubated for 20 mins in presence of GTP
RS4-11 = assay: Antiproliferative activity against human RS4-11 cells assessed as cell growth inhibition incubated for 48 hrs by MTT assay; type: functional, cell-based; conditions: RS4-11, 48 h
MCF7 = assay: Antiproliferative activity against human MCF7 cells assessed as cell growth inhibition incubated for 48 hrs by MTT assay; type: functional, cell-based; conditions: MCF7, 48 h
Leishmania major [22] = assay: Antileishmanial activity against promastigotes stage of Leishmania major; type: functional, organism-based
Leishmania major [23] = assay: Potency index, ratio of test compound IC50 to amphotericin B IC50 for antileishmanial activity against promastigotes stage of leishmania major; type: functional
Leishmania major [24] = assay: Potency index, ratio of test compound IC50 to miltefosine IC50 for antileishmanial activity against promastigotes stage of leishmania major; type: functional
Rattus norvegicus [25] = assay: Antiinflammatory activity in rat assessed as reduction in edema at 17 mg/kg, ip measured after 5 hrs relative to control; type: functional; set-up: scale not given: the % may be the effect or the level left
Staphylococcus aureus [26] = assay: Antibacterial activity against Staphylococcus aureus 6538 assessed as bacterial growth inhibition incubated for 24 hrs; type: functional
Staphylococcus aureus [27] = assay: Antibacterial activity against Methicillin-resistant Staphylococcus aureus assessed as bacterial growth inhibition incubated for 24 hrs; type: functional

Epidermal growth factor receptor, sequence (P00533 whole entry): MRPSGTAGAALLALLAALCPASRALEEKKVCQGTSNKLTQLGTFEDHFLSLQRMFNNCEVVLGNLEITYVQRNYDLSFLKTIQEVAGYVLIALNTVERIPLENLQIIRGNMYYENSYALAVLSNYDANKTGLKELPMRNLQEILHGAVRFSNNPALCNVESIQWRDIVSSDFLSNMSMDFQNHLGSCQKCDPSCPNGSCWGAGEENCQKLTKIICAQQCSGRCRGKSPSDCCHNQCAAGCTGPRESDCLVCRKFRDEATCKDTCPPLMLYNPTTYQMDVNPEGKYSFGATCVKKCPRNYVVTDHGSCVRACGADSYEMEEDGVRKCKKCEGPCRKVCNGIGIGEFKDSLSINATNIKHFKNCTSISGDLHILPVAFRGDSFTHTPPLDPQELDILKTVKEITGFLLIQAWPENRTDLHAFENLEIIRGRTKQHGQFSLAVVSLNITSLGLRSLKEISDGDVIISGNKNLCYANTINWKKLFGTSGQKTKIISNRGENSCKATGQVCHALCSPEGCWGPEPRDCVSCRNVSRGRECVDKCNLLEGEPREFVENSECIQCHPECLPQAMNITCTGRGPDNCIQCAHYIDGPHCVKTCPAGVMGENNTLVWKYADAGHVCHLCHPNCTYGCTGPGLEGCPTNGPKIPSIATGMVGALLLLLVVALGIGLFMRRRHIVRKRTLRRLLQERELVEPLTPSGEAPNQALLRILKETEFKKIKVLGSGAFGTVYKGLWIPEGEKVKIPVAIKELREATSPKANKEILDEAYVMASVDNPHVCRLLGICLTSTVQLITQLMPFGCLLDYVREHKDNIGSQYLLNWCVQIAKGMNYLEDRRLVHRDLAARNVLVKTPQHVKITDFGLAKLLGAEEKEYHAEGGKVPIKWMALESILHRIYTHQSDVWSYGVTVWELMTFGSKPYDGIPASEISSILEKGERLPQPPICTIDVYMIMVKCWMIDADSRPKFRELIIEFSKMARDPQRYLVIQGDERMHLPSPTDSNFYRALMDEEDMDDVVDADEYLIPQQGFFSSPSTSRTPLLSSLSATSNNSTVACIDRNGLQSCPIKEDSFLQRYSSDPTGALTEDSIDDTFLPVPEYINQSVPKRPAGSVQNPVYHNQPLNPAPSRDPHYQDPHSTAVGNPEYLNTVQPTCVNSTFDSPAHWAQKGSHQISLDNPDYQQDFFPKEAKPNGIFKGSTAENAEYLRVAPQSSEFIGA

C=C[C@H]1CN2CC[C@H]1C[C@H]2[C@H](O)c1ccnc2ccc(OC)cc12 [QUININE]
IC50 (Plasmodium falciparum [1]): 286 nM | IC50 (Plasmodium falciparum [2]): 0.268 µg/mL (≈ 0.826 µM)

O=c1c2ccccc2n2cnnc2n1-c1ccc(Cl)cc1
selectivity ratio [3]: > 25.5 | ED50 (Mus musculus [4]): 88 mg/kg

O=[N+]([O-])c1ncn(CCCCNS(=O)(=O)c2scc(Cl)c2Cl)n1
MIC [5]: 1.56 µg/mL (≈ 3.9 µM)

O=c1c2ccccc2n2cnnc2n1-c1ccc(Br)cc1
selectivity ratio [3]: > 26 | ED50 (Mus musculus [4]): 94.6 mg/kg

S=c1[nH]nc(NCNc2n[nH]c(=S)s2)s1
EC50 [6]: 89.8 µg/mL (≈ 323 µM) | EC50 [7]: 85.6 µg/mL (≈ 307 µM)

O=C(CCSc1nnc2n(Cc3ccccc3)c(=O)c3c4c(sc3n12)CCCC4)N1CCN(c2ccccc2)CC1
IC50 (HCT-116): 6120 nM

Cc1cc(Nc2ccc(Cl)c(Cl)c2)n2nc(C(F)(F)F)nc2n1
IC50 (Plasmodium falciparum [8]): 23 nM

COc1ccc(/C=N/n2c(S)nnc2CNC(=O)c2ccc(C)cc2)cc1OC
MIC (Staphylococcus aureus [9]): 3.12 µg/mL (≈ 7.59 µM) | MIC (Candida albicans): 3.12 µg/mL (≈ 7.59 µM)

COc1ccc(Nc2cc(C)nc3nc(C(F)(F)F)nn23)cc1
IC50 (Plasmodium falciparum [8]): 23 nM

COc1ccc(C(=O)n2nc(-c3ccncc3)nc2N)cc1
IC50 (Tubulin [10]): 872 nM | IC50 [11]: 4600 nM | IC50 [12]: 1800 nM

O=C(Nc1ccccc1)C1=NN(c2ccccc2)/C(=C2/C=NN(Cc3cc4ccccc4oc3=O)C2=O)N1c1ccccc1
ED50 [13]: 150 nM

O=C(NCc1nnc(S)n1/N=C/c1ccc([N+](=O)[O-])cc1)c1ccccc1
MIC (Staphylococcus aureus [9]): 3.12 µg/mL (≈ 8.17 µM) | MIC (Candida albicans): 3.12 µg/mL (≈ 8.17 µM)

CCn1c(CN2CCN(c3ccccc3)CC2)nn(CN2CCN(c3cc4c(cc3F)c(=O)c(C(=O)O)cn4C3CC3)CC2)c1=S
MIC (Escherichia coli): 0.125 µg/mL (≈ 0.193 µM) | MIC (Enterococcus faecalis): 0.125 µg/mL (≈ 0.193 µM) | MIC (Staphylococcus aureus [14]): 0.125 µg/mL (≈ 0.193 µM) | MIC [15]: 0.125 µg/mL (≈ 0.193 µM) | MIC (Klebsiella pneumoniae): 0.125 µg/mL (≈ 0.193 µM) | MIC (Pseudomonas aeruginosa): 0.125 µg/mL (≈ 0.193 µM)

CCn1cc(-c2nc(/N=C/c3ccc(Br)cc3)n[nH]2)c(=O)c2cc(Br)c(C)nc21
IC50 (DNA gyrase): 6220 nM

O=C(CSc1nc[nH]n1)Nc1nc2ccc(OCc3cccc(F)c3)cc2s1
ED50 (Mus musculus [16]): 50.8 mg/kg | ED50 (Mus musculus [17]): 76 mg/kg

O=C(CSc1nc2ccccc2n2cnnc12)Nc1ccc(S(=O)(=O)Nc2ccccn2)cc1
IC50 (DNA topoisomerase II): 970 nM

Fc1cc(F)cc(-c2nn3c(CN4c5ccccc5Sc5ccccc54)nnc3s2)c1
Activity (Rattus norvegicus [18]): 82.24%

c1cncc(-c2nn3c(COc4cnccn4)nnc3s2)c1
MIC [19]: 0.4 µg/mL (≈ 1.28 µM)

O=c1c(-c2n[nH]c(=S)n2-c2ccccc2)c[nH]c2ncnn12
EC50 (Rattus norvegicus [20]): 57100 nM

O=C(CSc1nc[nH]n1)Nc1nc2ccc(OCc3ccc(F)cc3)cc2s1
ED50 (Mus musculus [16]): 54.8 mg/kg | ED50 (Mus musculus [17]): 52.8 mg/kg

Fc1ccc(-c2nn3c(COc4cnccn4)nnc3s2)cc1
MIC [19]: 1 µg/mL (≈ 3.05 µM)

COc1cc(C(=O)n2nc(-c3ccc(C)cc3)nc2N)cc(OC)c1OC
IC50 (HeLa): < 1000 nM | IC50 (Jurkat): < 1000 nM | IC50 (HT-29): < 1000 nM | IC50 (Tubulin [21]): 660 nM | IC50 (RS4-11): < 1000 nM | IC50 (MCF7): < 1000 nM

CC1(c2ccccc2O)NN=C(N)N1C(Cc1cc2ccccc2[nH]1)C(=O)O (stereo not given)
IC50 (Leishmania major [22]): 0.0312 µg/mL (≈ 0.0822 µM) | Ratio IC50 (Leishmania major [23]): 36 | Ratio IC50 (Leishmania major [24]): 36

COc1ccc(-c2cc(-c3nnc(SCC(=O)Nc4ccc(/C(C)=N/O)cc4)n3-c3ccccc3)c3ccccc3n2)cc1
Activity (Rattus norvegicus [25]): 100%

O=C(CSc1nc2ccccc2n2cnnc12)Nc1ccc(S(=O)(=O)Nc2nccs2)cc1
IC50 (DNA topoisomerase II): 1100 nM

FC(F)(F)c1cc(-c2nnc(Sc3cc(Cl)nc(Sc4ccccc4)n3)[nH]2)cc(C(F)(F)F)c1
MIC (Staphylococcus aureus [26]): 1.8 µM (≈ 0.961 µg/mL) | MIC (Staphylococcus aureus [27]): 0.43 µg/mL (≈ 0.805 µM)

Cc1nc2[nH]cc(-c3n[nH]c(=S)n3-c3ccccc3)c(=O)n2n1
EC50 (Rattus norvegicus [20]): 18600 nM
